Experimental data from patent US9272978B2, “Hydroxy acid ester compound of substituted phenol, preparation method and medical use thereof” (West China Hospital, Sichuan University, priority 2010, dated 2016).

Key:
Kunming mice = conditions: tail vein injection; for disappearance time of FRR (onset time) / recovery time (recovery of FRR): during determination of ED50; for Median effective dose (ED50), disappearance of forepaw righting reflex: up-and-down method
Procedure: (§1) 60 Kunming mice with half males and half females were randomly divided into the drug test group (propofol hydroxybutyrate of the present invention) (n=30) and the Diprivan™ control group (positive control drug Diprivan™) (n=30). Median effective doses (ED50) of the substituted phenol hydroxy acid ester and Diprivan™ were determined by the up-and-down method. In the test, the mice were injected with the drugs through the tail veins, with the disappearance of the forepaw righting reflex (FRR) of the mice as a judgment index of the end point of anesthesia; the recovery of FRR of the mice as an index of recovery from anesthesia.
as §1, with “hydroxyvalerate” for “hydroxybutyrate”, “FRR” for “the forepaw righting reflex (FRR)”

[1] = mouse, rat or rabbit plasma, 37° C., 10 mg/ml solution, 0 min to 4 h, HPLC
Procedure: Three parallel solutions of propofol hydroxybutyrate of Example 1 with a concentration of 10 mg/ml were prepared, added into and mixed with the mouse, rat or rabbit plasma, which was pre-placed in water bath (37° C.), respectively.
Three parallel solutions of propofol hydroxyvalerate of Example 3 with a concentration of 10 mg/ml were prepared, added into and mixed with mouse, rat or rabbit plasma, which was pre-placed in water bath (37° C.), respectively.

[2] = disclosed in WO200213810; cited from earlier work
[3] = disclosed in WO200213810; cited from earlier work; remark: listed apart in the source

Structure (SMILES)	anesthetic effect (Kunming mice)	disappearance time of FRR (onset time) (Kunming mice)	recovery time (recovery of FRR) (Kunming mice)	Median effective dose (ED50), disappearance of forepaw righting reflex (Kunming mice)	in vitro decomposition in the plasma into the active compound propofol [1]	stability in aqueous solution [2]	water-solubility [3]
CC(C)c1cccc(C(C)C)c1OC(=O)CCCO [propofol hydroxybutyrate, propofol ω-hydroxybutyrate]	definite and reversible anesthetic effect	45.3 ± 12.3 s	235.6 ± 67.9 s	52 mg/kg	can be rapidly decomposed into the active compound propofol	–	–
CC(C)c1cccc(C(C)C)c1OC(=O)CCCCO [propofol hydroxyvalerate, propofol ω-hydroxyvalerate]	–	46.1 ± 9.5 s	256.1 ± 61.2 s	60 mg/kg	can be rapidly decomposed into the active compound propofol	–	–
CC(C)c1cccc(C(C)C)c1OC(=O)CCC(=O)[O-].[Na+] [propofol succinic acid monoester sodium salt]	–	–	–	–	–	unstable in aqueous solution	high water-solubility
